The conditions of data set [1]: cited from earlier work.
Data set [2] is described as follows: Measurement of log P value of the hardly water-soluble polyphenols (flask shaking method, JIS Z7260-107). Here is the method:
The log P value is a common logarithm of the partition coefficient between 1-octanol, and water and an index indicative of a hydrophobicity of an organic compound. Larger positive log P value indicates larger hydrophobicity. […] The details are described in Examples.
[Measurement of Log P Value of the Hardly Water-Soluble Polyphenols]
First, 1-octanol and distilled water were shaken for 24 hours at 25° C. to equilibrate them. Then, 10 mg of polyphenol was weighed into a glass vial with a cap, into which each of 4 mL of the equilibrated 1-octanol and water was added. The vial was shaken for 4 days at 25° C. […] Log P value is a common logarithm of the partition coefficient between the two phases.

The values that follow come from patent US9688712B2, “Manufacturing method for polyphenol composition” (KAO CORPORATION, priority 2010, dated 2017).

Read-outs that look alike come from different tables or passages of the source.

As a reminder, the logP is the decadic logarithm of the partition coefficient of the neutral form, usually between octanol and water. A higher logP goes with a more lipophilic compound.

`COc1ccc([C@@H]2CC(=O)c3c(O)cc(O[C@@H]4O[C@H](CO[C@@H]5O[C@@H](C)[C@H](O)[C@@H](O)[C@H]5O)[C@@H](O)[C@H](O)[C@H]4O)cc3O2)cc1O` [Hesperidin, hesperidin]: the “solubility in water at 25° C.” value in data set [1] is recorded as 0.02 mg/g.
In the case of `COc1cc(/C=C/C(=O)CC(=O)/C=C/c2ccc(O)c(OC)c2)ccc1O` [curcumin], the logP at 4 days in data set [2] came to 3.29.
`Oc1ccc(C=Cc2cc(O)cc(O)c2)cc1` [resveratrol]: the logP at 4 days in data set [2] (1-octanol/water) stood at 3.08.
